Read-outs that look alike come from different tables or passages of the source.
Key:
[1] = system: NSCLC; conditions: single agent, NSCLC patients after failure of standard therapy for advanced disease; cited from earlier work
[2] = system: advanced NSCLC; conditions: 75 patients with qRT-PCR results
[3] = patients with cancer, 150 mg/day; compared with targeted average plasma concentration; cited from earlier work
[4] = system: NSCLC; conditions: cited from earlier work
[5] = system: NSCLC; conditions: second line therapy of NSCLC; cited from earlier work

For `C#Cc1cccc(Nc2ncnc3cc(OCCOC)c(OCCOC)cc23)c1` [Tarceva, erlotinib], the survival [1] is given as “significantly prolongs and improves the survival”, the PD [2] is given as 39 (52%) n (%) and the “partial response (PR)” value [2] is given as 4 (5%) n (%). The “drug levels in plasma” value [3] was over 500 ng/mL.

In the case of `CC(=O)O[C@@]12CO[C@@H]1C[C@H](O)[C@@]1(C)C(=O)[C@H](O)C3=C(C)[C@@H](OC(=O)[C@H](O)[C@@H](NC(=O)OC(C)(C)C)c4ccccc4)C[C@@](O)([C@@H](OC(=O)c4ccccc4)[C@H]21)C3(C)C` [docetaxel], the “survival, third-line treatment or beyond” value ([4]; docetaxel as third-line treatment or beyond) is given as “no prolongation of survival” and the survival ([4]; second line after cisplatin-based first-line regimens failed, ECOG 0, 1 or 2) is given as “improved survival”.

In the case of `Nc1nc2[nH]cc(CCc3ccc(C(=O)N[C@@H](CCC(=O)O)C(=O)O)cc3)c2c(=O)[nH]1` [pemetrexed], the “efficacy compared with docetaxel” value [5] is given as “clinically equivalent efficacy” and the “side effects compared with docetaxel” value [5] is given as “significantly fewer side effects”.

From patent US20130217713A1, “PREDICTIVE MARKER FOR EGFR INHIBITOR TREATMENT” (Hoffmann-La Roche Inc., priority 2007, published 2013)
